Test results published in patent US12202835B2, “Substituted aromatic ring-linked dioxinoquinazolines and dioxinoquinolines as kinase inhibitors” (BEIJING SCITECH-MQ PHARMACEUTICALS LIMITED, priority 2018, dated 2025).

Assays:
Ba/F3 LMNA-NTRK1 cells = assay: Assay for inhibiting the proliferation of Ba/F3 LMNA-NTRK1 cells (CCK-8); assay type: cell-based; conditions: Mus musculus, BaF3
Outline: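 Viability was read as absorbance at 450 nm following 1–2 h CCK-8 incubation at 37 °C, relative to control and blank wells.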

c-MET kinase = c-MET kinase (Homo sapiens (Human), UniProt P08581); assay: Assay of small molecular compounds for inhibiting the activity of c-MET kinase (LANCE TR-FRET); assay type: biochemical; conditions: read-out: CMET IC50
Outline: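 Eleven final concentrations from 2500 nM down to 0.042 nM, in 4% DMSO, were tested against human c-MET (2× stock 2 nM), with compound and enzyme premixed for 5 min. The phosphorylation reaction used 4× stock of 400 nM ULight-JAK-1 peptide and 40 μM ATP for 60 min at room temperature, then stop and detection steps. TR-FRET percent inhibition against positive and negative controls gave the IC50.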

Ba/F3-AXL cells = assay: Assay for inhibiting the proliferation of Ba/F3-AXL cells (CCK-8); assay type: cell-based; conditions: 72 hours of incubation, medium with 100 ng/mL hGas6, CCK-8
Description: The values were then imported into Graphpad Prism 5 software for curve fitting, and IC50 was calculated.

[1] = tested on: Ba/F3 LMNA-NTRK1-G595R cells; assay: Assay for inhibiting the proliferation of Ba/F3 LMNA-NTRK1-G595R cells (CCK-8); assay type: cell-based; conditions: Mus musculus, BaF3
Outline: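 Cells seeded in 96-well plates overnight, then exposed 72 h to 9 three-fold dilutions of compound (0.25% DMSO final). Viability by CCK-8 (1-2 h at 37° C., OD 450 nm), survival normalized to untreated and cell-free blanks; IC50 by curve fitting.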

Chain of c-MET kinase (P08581 25-1390): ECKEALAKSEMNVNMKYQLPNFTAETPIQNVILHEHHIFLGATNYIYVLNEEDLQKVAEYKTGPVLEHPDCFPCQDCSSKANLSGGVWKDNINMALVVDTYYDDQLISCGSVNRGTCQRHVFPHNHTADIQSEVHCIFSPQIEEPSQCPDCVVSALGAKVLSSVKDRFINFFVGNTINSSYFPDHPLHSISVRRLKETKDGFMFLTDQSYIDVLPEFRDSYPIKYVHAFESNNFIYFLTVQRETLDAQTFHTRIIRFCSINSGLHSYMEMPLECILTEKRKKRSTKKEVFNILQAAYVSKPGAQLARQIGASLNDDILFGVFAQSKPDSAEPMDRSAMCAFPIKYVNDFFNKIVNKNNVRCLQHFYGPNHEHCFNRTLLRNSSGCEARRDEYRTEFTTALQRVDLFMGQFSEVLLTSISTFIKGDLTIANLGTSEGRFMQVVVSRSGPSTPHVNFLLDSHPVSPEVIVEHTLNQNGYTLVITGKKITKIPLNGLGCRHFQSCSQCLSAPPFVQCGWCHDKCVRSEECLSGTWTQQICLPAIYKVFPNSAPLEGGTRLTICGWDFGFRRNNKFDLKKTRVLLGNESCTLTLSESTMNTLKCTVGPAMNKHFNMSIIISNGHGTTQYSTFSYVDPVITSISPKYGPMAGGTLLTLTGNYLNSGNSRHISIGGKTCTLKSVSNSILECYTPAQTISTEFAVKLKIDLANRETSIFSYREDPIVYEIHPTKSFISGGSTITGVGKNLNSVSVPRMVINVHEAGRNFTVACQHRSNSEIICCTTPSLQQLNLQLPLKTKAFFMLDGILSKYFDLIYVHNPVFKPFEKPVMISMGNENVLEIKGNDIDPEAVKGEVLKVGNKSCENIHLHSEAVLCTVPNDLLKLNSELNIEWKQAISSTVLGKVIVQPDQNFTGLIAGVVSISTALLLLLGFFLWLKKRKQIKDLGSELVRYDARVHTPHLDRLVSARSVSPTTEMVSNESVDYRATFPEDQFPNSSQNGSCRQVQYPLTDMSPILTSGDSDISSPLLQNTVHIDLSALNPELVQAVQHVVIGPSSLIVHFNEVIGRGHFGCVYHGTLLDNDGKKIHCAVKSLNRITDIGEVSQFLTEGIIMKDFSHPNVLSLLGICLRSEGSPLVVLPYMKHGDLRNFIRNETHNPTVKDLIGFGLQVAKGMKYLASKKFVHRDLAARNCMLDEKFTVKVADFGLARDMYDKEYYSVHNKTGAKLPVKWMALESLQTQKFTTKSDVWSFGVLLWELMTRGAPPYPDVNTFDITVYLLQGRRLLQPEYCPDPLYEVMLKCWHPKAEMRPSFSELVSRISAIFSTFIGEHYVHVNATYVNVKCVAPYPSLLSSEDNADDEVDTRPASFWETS

IC50 (Ba/F3 LMNA-NTRK1 cells)	IC50 (c-MET kinase)	IC50 (Ba/F3-AXL cells)	IC50 [1]	Compound
< 50 nM	≤ 50 nM	< 50 nM	200 to 1000 nM	CC(C)n1cc(C(=O)Nc2ccc(Oc3ccnc4cc(OCCCN5CCOCC5)c5c(c34)OCCO5)c(F)c2)c(=O)n(-c2ccc(F)cc2)c1=O [Example 16, N-(3-fluoro-4-((5-(3-morpholinopropoxy)-2,3-dihydro-[1,4]dioxino[2,3-f]quinolin-10-yl)oxy)phenyl)-3-(4-fluorophenyl)-1-isopropyl-2,4-dioxo-1,2,3,4-tetrahydropyrimidine-5-carboxamide]
< 50 nM	≤ 50 nM	< 50 nM	50 to 200 nM	CCn1cc(C(=O)Nc2ccc(Oc3ccnc4cc(OC)c5c(c34)OCCO5)c(F)c2)c(=O)n(-c2ccc(F)cc2)c1=O [Example 37, N-(3-fluoro-4-((5-methoxy-2,3-dihydro-[1,4]dioxino[2,3-f]quinolin-10-yl)oxy)phenyl)-3-(4-fluorophenyl)-1-ethyl-2,4-dioxo-1,2,3,4-tetrahydropyrimidine-5-carboxamide]
< 50 nM	50 to 500 nM	–	≤ 50 nM	COc1cc2nccc(Oc3ccc(NC(=O)c4cn(C)c(=O)n(-c5ccc(F)cc5)c4=O)c(Cl)c3)c2c2c1OCCO2 [Example 125, N-(2-chloro-4-((5-methoxy-2,3-dihydro-[1,4]dioxino[2,3-f]quinolin-10-yl)oxy)phenyl)-3-(4-fluorophenyl)-1-methyl-2,4-dioxo-1,2,3,4-tetrahydropyrimidine-5-carboxamide]
< 50 nM	≤ 50 nM	–	≤ 50 nM	CCOc1cc2nccc(Oc3ccc(NC(=O)c4cn(C)c(=O)n(-c5ccc(F)cc5)c4=O)c(Cl)c3)c2c2c1OCCO2 [Example 129, N-(2-chloro-4-((5-ethoxy-2,3-dihydro-[1,4]dioxino[2,3-f]quinolin-10-yl)oxy)phenyl)-3-(4-fluorophenyl)-1-methyl-2,4-dioxo-1,2,3,4-tetrahydropyrimidine-5-carboxamide]
< 50 nM	≤ 50 nM	–	≤ 50 nM	Cn1cc(C(=O)Nc2ccc(Oc3ccnc4cc(OCCCN5CCCCC5)c5c(c34)OCCO5)cc2Cl)c(=O)n(-c2ccc(F)cc2)c1=O [Example 137, N-(2-chloro-4-((5-((3-piperidin-1-yl)propoxy)-2,3-dihydro-[1,4]dioxino[2,3-f]quinolin-10-yl)oxy)phenyl)-3-(4-fluorophenyl)-1-methyl-2,4-dioxo-1,2,3,4-tetrahydropyrimidine-5-carboxamide]
< 50 nM	≤ 50 nM	–	> 1000 nM	COc1cc2nccc(Oc3ccc(NC(=O)c4cn(C)c(=O)n(-c5ccc(F)cc5)c4=O)cc3)c2c2c1OCCO2 [Example 145, N-(4-((5-methoxy-2,3-dihydro-[1,4]dioxino[2,3-f]quinolin-10-yl)oxy)phenyl)-3-(4-fluorophenyl)-1-methyl-2,4-dioxo-1,2,3,4-tetrahydropyrimidine-5-carboxamide]
< 50 nM	≤ 50 nM	–	200 to 1000 nM	CCn1cc(C(=O)Nc2ccc(Oc3ccnc4cc(OC)c5c(c34)OCCO5)cc2)c(=O)n(-c2ccc(F)cc2)c1=O [Example 146, N-(4-((5-methoxy-2,3-dihydro-[1,4]dioxino[2,3-f]quinolin-10-yl)oxy)phenyl)-3-(4-fluorophenyl)-1-ethyl-2,4-dioxo-1,2,3,4-tetrahydropyrimidine-5-carboxamide]
< 50 nM	≤ 50 nM	–	50 to 200 nM	COCCOc1cc2nccc(Oc3ccc(NC(=O)c4cn(C)c(=O)n(-c5ccc(F)cc5)c4=O)cc3)c2c2c1OCCO2 [Example 147, N-(4-((5-(2-methoxyethoxy)-2,3-dihydro-[1,4]dioxino[2,3-f]quinolin-10-yl)oxy)phenyl)-3-(4-fluorophenyl)-1-methyl-2,4-dioxo-1,2,3,4-tetrahydropyrimidine-5-carboxamide]
< 50 nM	≤ 50 nM	–	200 to 1000 nM	CCn1cc(C(=O)Nc2ccc(Oc3ccnc4cc(OCCOC)c5c(c34)OCCO5)cc2)c(=O)n(-c2ccc(F)cc2)c1=O [Example 148, N-(4-((5-(2-methoxyethoxy)-2,3-dihydro-[1,4]dioxino[2,3-f]quinolin-10-yl)oxy)phenyl)-3-(4-fluorophenyl)-1-ethyl-2,4-dioxo-1,2,3,4-tetrahydropyrimidine-5-carboxamide]
< 50 nM	≤ 50 nM	–	> 1000 nM	Cn1cc(C(=O)Nc2ccc(Oc3ccnc4cc(OCC(C)(C)O)c5c(c34)OCCO5)cc2)c(=O)n(-c2ccc(F)cc2)c1=O [Example 149, N-(4-((5-(2-hydroxy-2-methylpropoxy)-2,3-dihydro-[1,4]dioxino[2,3-f]quinolin-10-yl)oxy)phenyl)-3-(4-fluorophenyl)-1-methyl-2,4-dioxo-1,2,3,4-tetrahydropyrimidine-5-carboxamide]
< 50 nM	≤ 50 nM	–	> 1000 nM	CCn1cc(C(=O)Nc2ccc(Oc3ccnc4cc(OCC(C)(C)O)c5c(c34)OCCO5)cc2)c(=O)n(-c2ccc(F)cc2)c1=O [Example 150, N-(4-((5-(2-hydroxy-2-methylpropoxy)-2,3-dihydro-[1,4]dioxino[2,3-f]quinolin-10-yl)oxy)phenyl)-3-(4-fluorophenyl)-1-ethyl-2,4-dioxo-1,2,3,4-tetrahydropyrimidine-5-carboxamide]
< 50 nM	≤ 50 nM	–	≤ 50 nM	COc1cc2nccc(Oc3ccc(NC(=O)c4cn(C)c(=O)n(-c5ccc(F)cc5)c4=O)c(F)c3)c2c2c1OCCO2 [Example 153, N-(2-fluoro-4-((5-methoxy-2,3-dihydro-[1,4]dioxino[2,3-f]quinolin-10-yl)oxy)phenyl)-3-(4-fluorophenyl)-1-methyl-2,4-dioxo-1,2,3,4-tetrahydropyrimidine-5-carboxamide]
< 50 nM	≤ 50 nM	–	≤ 50 nM	COCCOc1cc2nccc(Oc3ccc(NC(=O)c4cn(C)c(=O)n(-c5ccc(F)cc5)c4=O)c(F)c3)c2c2c1OCCO2 [Example 155, N-(2-fluoro-4-((5-(2-methoxyethoxy)-2,3-dihydro-[1,4]dioxino[2,3-f]quinolin-10-yl)oxy)phenyl)-3-(4-fluorophenyl)-1-methyl-2,4-dioxo-1,2,3,4-tetrahydropyrimidine-5-carboxamide]
< 50 nM	≤ 50 nM	–	50 to 200 nM	CCn1cc(C(=O)Nc2ccc(Oc3ccnc4cc(OCCOC)c5c(c34)OCCO5)cc2F)c(=O)n(-c2ccc(F)cc2)c1=O [Example 156, N-(2-fluoro-4-((5-(2-methoxyethoxy)-2,3-dihydro-[1,4]dioxino[2,3-f]quinolin-10-yl)oxy)phenyl)-3-(4-fluorophenyl)-1-ethyl-2,4-dioxo-1,2,3,4-tetrahydropyrimidine-5-carboxamide]
< 50 nM	500 to 5000 nM	–	50 to 200 nM	Cn1cc(C(=O)Nc2ccc(Oc3ccnc4ccc5c(c34)OCCO5)cc2F)c(=O)n(-c2ccc(F)cc2)c1=O [Example 162, N-(4-((2,3-dihydro-[1,4]dioxino[2,3-f]quinolin-10-yl)oxy)-2-fluorophenyl)-3-(4-fluorophenyl)-1-methyl-2,4-dioxo-1,2,3,4-tetrahydropyrimidine-5-carboxamide]
